Test results as given in patent publication US9969715B2, “Compounds useful for treating cancer” (ABIVAX, priority 2012, dated 2018).

Key:
[1] = system: MDA-MB231-luc-D3H2LN cells; assay: Toxicity assay under normal cell culture conditions (MTS), MDA cells; type: cell-based, human; conditions: MDA-MB231-luc-D3H2LN cells, MEM+10% FBS, 72 h incubation, MTS
Procedure: (§1) In order to detect possible toxic effects, all compounds are tested in parallel in a viability assay. The viability assay is performed in parallel on serum-starved cells (as in the invasion assay) vs. cells under normal culture conditions (10% FBS).
(§2) Toxicity Assays (Under Normal Cell Culture Conditions):
(§3) Compounds were prepared as for the invasion assay, and then added to either MDA-MB231-luc-D3H2LN cells (2000/well) under normal culture conditions (MEM+10% FBS), or human PBMC (75000/well, in RPMI+10% FBS+IL-2) in standard 96-well tissue culture plates. After 72 h incubation, a standard MTS assay was performed according to the manufacturer's instructions (Promega Ref. G3581). Compounds were tested at various concentrations (concentration-response curves) in order to determine the concentrations at which 50% toxicity is obtained.

[2] = system: MDA-MB231-luc-D3H2LN cells; assay: Invasion of MDA-MB231-D3H2LN cells into collagen (example 15 = procedure 2, 48 h drug pre-incubation); type: cell-based; conditions: concentration giving 50% of the anti-invasive effect of 10 μM Y-27632; 48 h pre-incubation, 24 h with 5% FBS; read-out: MDA: Inhib. of invasion: 0.5 × eff. of 10 μM Y-27632 at (μM) av
Procedure: Effect of Drug Compounds on Invasion of MDA-MB231-D3H2LN Cells into Collagen
Preparation of cells at the bottom of a collagen gel: Cells are suspended in a liquid collagen solution (4° C.), distributed into BSA-coated wells, and then collected at the bottom of the wells by centrifugation. The collagen is then solidified by incubation at 37° C. The BSA coating improves the adhesion of the collagen gel.
Pre-treatment with the compounds to be tested: Concentrated drug solutions are then added on top of the collagen, and cells are pre-incubated for 48 h with the drugs at low serum conditions (0.025% FBS).
Stimulation of invasion: Medium with 5% FBS is then added in order to stimulate invasion of the cells into the collagen gel.
(§4) Viability assay, fixation and staining: Following another 24 h incubation, an MTS assay is performed directly on the cells in the collagen. Then, cells are fixed and nuclei are stained.
Analysis: Finally, plates are analyzed using an automated microscope. Fluorescent beads that have been included into the BSA coating serve to detect the bottom of the wells. Pictures of the stained nuclei are taken at the same level (0 μm) as well as 25 μm and 50 μm above.
Negative control: No drug (just DMSO at equivalent concentration). Positive control: 10 μM Y-27632. To avoid edge effects, cells are added only to the 60 central wells B2-G11; lines A and H receive only collagen without cells (blank for the MTS assay) columns 1 and 12 remain free. Each drug is tested at least in triplicate. The positive and negative controls should be tested in several triplicates at different positions on each plate. Typical plate map (−=negative control, +=positive control, 1-12=12 different test conditions, i. e. different drug compounds or concentrations):
Preparation of 4× concentrated drug solutions in MEM+0.1% FBS+2% Lutrol E-400+0.8% DMSO: Mix each 620 μl MEM+0.1% FBS+2% Lutrol E-400 with each 4 μl DMSO+each 1 μl of the 50 mM compound stock solutions (yielding […] and 0.8% DMSO). If the desired final compound concentration is <5 μM, then further dilute in MEM+0.1% FBS+0.8% DMSO. Negative control: MEM+0.1% FBS+2% Lutrol E-400+0.8% DMSO without any drug. Preparation of the positive control: Mix 4.5 ml MEM+0.1% FBS+2% Lutrol E-400+[…] with 36 μl 5 mM Y-27632 (freshly thawed aliquot) (yielding 40 μM).
add each 33 μl/well of the 4× concentrated drug solutions in MEM+0.1% FBS+2% Lutrol E-400+0.8% DMSO to the corresponding wells (yields 1× concentrated drugs in MEM+0.025% FBS+0.5% Lutrol E-400+0.2% DMSO final)
incubate 48 h at 37° C./5% CO2
incubate 24 h at 37° C./5% CO2
for each well, calculate the mean invasion distance of the counted cells: (25 μm×number of cells at 25 μm+50 μm×number cells at 50 μm)/sum of cells at 0, 25 and 50 μm
invalidate any replicate with a CV≥50% (compound to be re-tested, or assay to be repeated if CV≥50% for the untreated negative control or the compound Y-27632-treated positive control). Y27632 is a selective inhibitor of the Rho-associated protein kinase p160ROCK of the following formula
validate the assay only if the mean invasion distance of the cells treated with 10 μM Y-27632 (positive control) is decreased by ≥40% as compared to the untreated negative control
(§5) Final analysis: Determine the concentration at which a given compound has 50% of the anti-invasive effect of the positive control (10 μM Y-27632). Determine the toxicity (=loss of viability) of the compound under these conditions.
Here, invasion (into collagen) is the concentration of the compound necessary to reach 50% of the inhibition effect compared to 10 μM Y-27632.
Standard operating procedure 2 is exactly the same as the procedure as described in example 15.

human PBMC = assay: Toxicity assay under normal cell culture conditions (MTS), PBMC; type: cell-based; conditions: human PBMC, RPMI+10% FBS+IL-2, 72 h incubation, MTS
Procedure: as §2, §3

[3] = system: MDA-MB231-luc-D3H2LN cells; assay: Viability (MTS) assay on the cells in collagen under invasion assay conditions; type: cell-based, human; conditions: loss of viability at the concentration giving 0.5 × effect of 10 μM Y-27632, invasion assay conditions
Procedure: as §4, §1
Viability Assay: MTS Assay:
add each 33 μl/well of the MTS reagent, incubate 3-4 h at 37° C./5% CO2
read absorbance at 490 nm (proportional to the viability)
calculate the background-corrected signals by subtracting the means of the background signals in absence of cells from the corresponding signals in presence of cells
normalize the background-corrected signals with respect to the mean signal of the negative controls (no drug) (viabilities are thus expressed in “% of control”)
as §5

SMILES | IC50 [2] | MDA tox: 50% tox. at (μM) av [1] | PBMC tox.: 50% tox. at (μM) av (human PBMC) | (+ MDA tox. under these cond.) % tox [3]
O=C(NCCCN1CCCCC1)c1cccc(Nc2cccc(C(=O)Nc3ccncn3)c2)c1 [Compound 29, N-(3-(piperidin-1-yl)propyl)-3-((3-(pyrimidin-4-ylcarbamoyl)phenyl)amino)benzamide] | 0.15 µM | 33 µM | 44 µM | <10%
CN1CCN(CCCNC(=O)c2cccc(Nc3cccc(C(=O)Nc4ccncc4)c3)c2)CC1 [Compound 6, N-(3-(4-methylpiperazin-1-yl)propyl)-3-((3-(pyridin-4-ylcarbamoyl)phenyl)amino)benzamide] | 0.16 µM | 58 µM | 100 µM | <10%
CN(C(=O)c1cccc(Nc2cccc(C(=O)NCCCN3CCCCC3)c2)c1)c1ccncc1 [Compound 21, N-methyl-3-((3-((3-(piperidin-1-yl)propyl)carbamoyl)phenyl)amino)-N-(pyridin-4-yl)benzamide] | 2.05 µM | >100 µM | >100 µM | <10%
CN1CCN(CCCNC(=O)c2cccc(Nc3cccc(C(=O)N(C)c4ccncc4)c3)c2)CC1 [Compound 20, N-methyl-3-((3-((3-(4-methylpiperazin-1-yl)propyl)carbamoyl)phenyl)amino)-N-(pyridin-4-yl)benzamide] | 0.85 µM | >100 µM | >100 µM | <10%
CCN(CC)CCCNC(=O)c1cccc(Nc2cccc(C(=O)N(C)c3ccncc3)c2)c1 [Compound 17, 3-((3-((3-(diethylamino)propyl)carbamoyl)phenyl)amino)-N-methyl-N-(pyridin-4-yl)benzamide] | 3 µM | >100 µM | >100 µM | <10%
O=C(NCCCN1CCCCC1)c1cccc(Nc2cccc(C(=O)Nc3ccncc3)c2)c1 [Compound 7, N-(3-(piperidin-1-yl)propyl)-3-((3-(pyridin-4-ylcarbamoyl)phenyl)amino)benzamide] | 0.11 µM | 25 µM | 38 µM | <10%
CCN(CC)CCCNS(=O)(=O)c1cccc(Nc2cccc(C(=O)Nc3ccncn3)c2)c1 [Compound 26, 3-((3-(N-(3-(diethylamino)propyl)sulfamoyl)phenyl)amino)-N-(pyrimidin-4-yl)benzamide] | 3.6 µM | 73 µM | 85 µM | <10%

Now from value to compound, other results behind:

IC50 [2] | SMILES | MDA tox: 50% tox. at (μM) av [1] | PBMC tox.: 50% tox. at (μM) av (human PBMC) | (+ MDA tox. under these cond.) % tox [3]
0.28 µM | O=C(NCCCN1CCOCC1)c1cccc(Nc2cccc(C(=O)Nc3ccncn3)c2)c1 [Compound 30, N-(3-morpholinopropyl)-3-((3-(pyrimidin-4-ylcarbamoyl)phenyl)amino)benzamide] | 75 µM | >100 µM | <10%
13.3 µM | CCN(CC)CCCNC(=O)c1cncc(Nc2cccc(C(=O)Nc3ccncc3)c2)c1 [Compound 32, N-(3-(diethylamino)propyl)-5-((3-(pyridin-4-ylcarbamoyl)phenyl)amino) nicotinamide] | >>100 μM | >>100 μM | <10%
2.2 µM | CCN(CC)CCCNC(=O)c1cccc(Nc2cc(C(=O)Nc3ccncc3)ccn2)c1 [Compound 47, 2-((3-((3-(diethylamino)propyl)carbamoyl)phenyl)amino)-N-(pyridin-4-yl)isonicotinamide] | >100 µM | >100 µM | <10%
0.2 µM | CN1CCN(CCCNC(=O)c2ccnc(Nc3cccc(C(=O)Nc4ccncn4)c3)c2)CC1 [Compound 42, N-(3-(4-methylpiperazin-1-yl)propyl)-2-((3-(pyrimidin-4-ylcarbamoyl)phenyl)amino)isonicotinamide] | ≥100 µM | >100 µM | <10%
1.15 µM | CCN(CC)CCCNC(=O)c1ccnc(Nc2cc(C(=O)Nc3ccncc3)ccn2)c1 [Compound 44, N-(3-(diethylamino)propyl)-2-((4-(pyridin-4-ylcarbamoyl)pyridin-2-yl)amino)isonicotinamide] | >100 µM | >100 µM | <10%
1.88 µM | O=C(NCCCN1CCCC1)c1cccc(Nc2cc(C(=O)Nc3ccncc3)ccn2)c1 [Compound 50, N-(pyridin-4-yl)-2-((3-((3-(pyrrolidin-1-yl)propyl)carbamoyl)phenyl)amino) isonicotinamide] | ≥100 µM | >100 µM | <10%
0.75 µM | O=C(NCCCN1CCOCC1)c1cccc(Nc2cc(C(=O)Nc3ccncc3)ccn2)c1 [Compound 48, 2-((3-((3-morpholinopropyl)carbamoyl)phenyl)amino)-N-(pyridin-4-yl) isonicotinamide] | 80 µM | 26 µM | <10%
